Results reported in the supplement of paper PMC10627819.

Tests used:
S. pneumoniae D39V [1] = assay: Bliss interaction score (quartile over a dose matrix) (fitness difference); higher = more antagonism (negative = synergy)
Summary of the method: (§1)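 The Bliss score takes observed fitness and subtracts the expected fitness, calculated as a product of single-drug fitness values. Those single-drug values were inferred from the combination data. Fitness is OD595 at entry into stationary phase divided by the plate's robust no-drug mean, capped at 1, and the score is summarised by quartiles across technical, biological and donor/recipient replicates.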

S. aureus DSM 20231 [2] = assay: as above
Summary of the method: as §1

B. subtilis 168 [3] = assay: as above
Summary of the method: as §1

S. aureus Newman [4] = assay: as above
Summary of the method: as §1

S. pneumoniae D39V [5] = assay: fitness (endpoint OD595 vs no drug) (fraction); higher = more growth
Summary of the method: (§2)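 Fitness is computed from the optical density at which cultures reach stationary phase, divided by the robust mean of no-drug control wells. Any value above 1 is set to 1. Cultures started at OD595 0.01 in 384-well plates with TSB, LB Lennox or CY at 37 °C, and OD595 was read every 30 min for 14 h against a first-reading background.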

S. aureus DSM 20231 [6] = assay: as above
Summary of the method: as §2

B. subtilis 168 [7] = assay: as above
Summary of the method: as §2

S. aureus Newman [8] = assay: as above
Summary of the method: as §2
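Wherever Bliss interaction score (quartile over a dose matrix) is given: first quartile when negative (synergy) and third quartile when positive (antagonism).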
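Wherever fitness (endpoint OD595 vs no drug) is given: OD595 on entry to stationary phase over no-drug wells; at most 1.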

CO/N=C(\C(=O)N[C@@H]1C(=O)N2C(C(=O)O)=C(COC(C)=O)CS[C@H]12)c1csc(N)n1 [Cefotaxime] + C[C@@H]1O[C@@H]1P(=O)(O)O [Fosfomycin]
Details | Bliss interaction score
B. subtilis 168 [3] | 0.0459
S. aureus DSM 20231 [2] | 0.143
S. aureus Newman [4] | 0.113
S. pneumoniae D39V [1] | -0.0644

Details | fitness
B. subtilis 168 [7], first compound 0.5 µg/mL, partner 1.562 µg/mL | 0.244
B. subtilis 168 [7], first compound 0.5 µg/mL, partner 3.124 µg/mL | 0.194
B. subtilis 168 [7], first compound 0.5 µg/mL, partner 6.248 µg/mL | 0.16
B. subtilis 168 [7], first compound 1 µg/mL, partner 1.562 µg/mL | 0.134
B. subtilis 168 [7], first compound 1 µg/mL, partner 3.124 µg/mL | 0.102
B. subtilis 168 [7], first compound 1 µg/mL, partner 6.248 µg/mL | 0.0644
B. subtilis 168 [7], first compound 2 µg/mL, partner 1.562 µg/mL | 0.13
B. subtilis 168 [7], first compound 2 µg/mL, partner 3.124 µg/mL | 0.117
B. subtilis 168 [7], first compound 2 µg/mL, partner 6.248 µg/mL | 0.054
S. aureus DSM 20231 [6], first compound 0.078 µg/mL, partner 0.781 µg/mL | 0.65
S. aureus DSM 20231 [6], first compound 0.078 µg/mL, partner 1.562 µg/mL | 0.608
S. aureus DSM 20231 [6], first compound 0.078 µg/mL, partner 3.124 µg/mL | 0.559
S. aureus DSM 20231 [6], first compound 0.156 µg/mL, partner 0.781 µg/mL | 0.624
S. aureus DSM 20231 [6], first compound 0.156 µg/mL, partner 1.562 µg/mL | 0.62
S. aureus DSM 20231 [6], first compound 0.156 µg/mL, partner 3.124 µg/mL | 0.532
S. aureus DSM 20231 [6], first compound 0.312 µg/mL, partner 0.781 µg/mL | 0.683
S. aureus DSM 20231 [6], first compound 0.312 µg/mL, partner 1.562 µg/mL | 0.623
S. aureus DSM 20231 [6], first compound 0.312 µg/mL, partner 3.124 µg/mL | 0.518
S. aureus Newman [8], first compound 0.078 µg/mL, partner 0.781 µg/mL | 0.628
S. aureus Newman [8], first compound 0.078 µg/mL, partner 1.562 µg/mL | 0.536
S. aureus Newman [8], first compound 0.078 µg/mL, partner 3.124 µg/mL | 0.21
S. aureus Newman [8], first compound 0.156 µg/mL, partner 0.781 µg/mL | 0.536
S. aureus Newman [8], first compound 0.156 µg/mL, partner 1.562 µg/mL | 0.497
S. aureus Newman [8], first compound 0.156 µg/mL, partner 3.124 µg/mL | 0.206
S. aureus Newman [8], first compound 0.625 µg/mL, partner 0.781 µg/mL | 0.17
S. aureus Newman [8], first compound 0.625 µg/mL, partner 1.562 µg/mL | 0.185
S. aureus Newman [8], first compound 0.625 µg/mL, partner 3.124 µg/mL | 0.084
S. aureus Newman [8], first compound 1.25 µg/mL, partner 0.781 µg/mL | 0.0664
S. aureus Newman [8], first compound 1.25 µg/mL, partner 1.562 µg/mL | 0.033
S. aureus Newman [8], first compound 1.25 µg/mL, partner 3.124 µg/mL | 0.0169
S. aureus Newman [8], first compound 2.5 µg/mL, partner 0.781 µg/mL | 0.0252
S. aureus Newman [8], first compound 2.5 µg/mL, partner 1.562 µg/mL | 0.0136
S. aureus Newman [8], first compound 2.5 µg/mL, partner 3.124 µg/mL | 0.0374
S. pneumoniae D39V [5], first compound 0.0018 µg/mL, partner 1.25 µg/mL | 0.958
S. pneumoniae D39V [5], first compound 0.0018 µg/mL, partner 2.5 µg/mL | 0.959
S. pneumoniae D39V [5], first compound 0.0018 µg/mL, partner 5 µg/mL | 0.761
S. pneumoniae D39V [5], first compound 0.0035 µg/mL, partner 1.25 µg/mL | 0.962
S. pneumoniae D39V [5], first compound 0.0035 µg/mL, partner 2.5 µg/mL | 0.943
S. pneumoniae D39V [5], first compound 0.0035 µg/mL, partner 5 µg/mL | 0.736
S. pneumoniae D39V [5], first compound 0.007 µg/mL, partner 1.25 µg/mL | 0.897
S. pneumoniae D39V [5], first compound 0.007 µg/mL, partner 2.5 µg/mL | 0.778
S. pneumoniae D39V [5], first compound 0.007 µg/mL, partner 5 µg/mL | 0.533

fitness, one replicate
Details | partner 0.781 µg/mL | partner 1.562 µg/mL | partner 3.124 µg/mL | partner 6.248 µg/mL
B. subtilis 168 [7], first compound 0.00775 µg/mL | – | 0.573 | 0.446 | 0.274
B. subtilis 168 [7], first compound 0.0155 µg/mL | – | 0.443 | 0.362 | 0.198
B. subtilis 168 [7], first compound 0.031 µg/mL | – | 0.319 | 0.225 | 0.156
B. subtilis 168 [7], first compound 0.0625 µg/mL | – | 0.454 | 0.413 | 0.34
B. subtilis 168 [7], first compound 0.125 µg/mL | – | 0.472 | 0.389 | 0.238
B. subtilis 168 [7], first compound 0.25 µg/mL | – | 0.367 | 0.337 | 0.186
S. aureus DSM 20231 [6], first compound 0.039 µg/mL | 0.718 | 0.673 | 0.504 | –
S. aureus Newman [8], first compound 0.039 µg/mL | 0.58 | 0.511 | 0.202 | –
S. aureus Newman [8], first compound 0.312 µg/mL | 0.341 | 0.205 | 0.117 | –
